Source: US20080113063A1, “MICRONUTRIENT SUPPLEMENT” (priority 2006, published 2008)

Legend:
[1] = test system: male avian broiler chicks; assay: Bioavailability of zinc in chicks fed a zinc-free basal corn-soybean diet plus zinc source, 20-day experiment; format: in vivo
Experimental: An experiment was conducted to compare the bioavailability of zinc from zinc diammine chloride (ZDC or Zn(NH3)2Cl2) with that of reagent grade zinc sulfate heptahydrate (ZSH or ZnSO4.7H2O). A zinc-free basal corn-soybean diet was formulated. The zinc sources were added to the basal diet at doses of 4 mg Zn per kg and 8 mg Zn per kg. The basal and experimental diets were mixed using a horizontal mixer for basal diet and a Hobart mixer for individual treatments. All diets were fed as a mash feed. Eighty male avian broiler chicks were used in the 20-day experiment. The test birds were randomly divided into 20 pens of 4 birds each. The birds were housed in thermostatically controlled, stainless steel battery cages with raised wire flooring in an environmentally controlled facility. Environmental conditions for the birds (i.e., floor space, temperature, lighting, feeder and water space) were similar for all test groups. The chicks were pretested for the first three days after hatching; and then they were switched to the basal diet until the start of the study at day eight. Water that had been deionized and distilled and feed was available for ad libitum consumption.
All feed added to the pens was recorded. Feed was weighed back at the conclusion of the trial and the feed intake was calculated. The ratio of weight gain to feed consumed was calculated for the period using the average weight gain of birds per treatment divided by the average feed consumption for the treatment throughout the test period.

[2] = Soluble copper versus pH on titration of TBCC mother liquor with NH4OH; format: physicochemical; settings: pH about 5.6, room temperature, ammonium chloride mother liquor
Experimental: The starting material used for this example was mother liquor remaining after the production of tribasic copper chloride (TBCC) from spent circuit board chemical etchants. The particular sample of mother liquor was slightly acidic, contained several hundred grams per liter of ammonium chloride and about 12 g/L of dissolved copper. The series of tests were conducted at room temperature. A 400 mL sample was titrated with NH4OH solution having a specific gravity of 0.93 and containing about 16% NH3 by weight. The pH and soluble copper concentrations were measured after each increment of NH4OH solution added. The results are illustrated in FIG. 4. Precipitation of copper initiated at a pH of about 4.1 and continued until the pH reached about 5.5. It was apparent that the copper amine chloride salt was forming at least within the pH range of 4.5 to 5.6. As expected from the stoichiometry of Equation 3, about 1 mole of copper was precipitated for every 2 moles of ammonia added. For this particular series of tests, the minimum solubility of copper was about 1,000 mg/L at a pH of about 5.6. As more ammonium hydroxide was added to raise the pH above 5.6, the copper amine chloride salt dissolved to form a navy blue soluble copper tetrammine complex. At a pH above about 7.2 virtually all of the copper ammine chloride salt had dissolved. […]

SMILES | Feed Intake ([1]; Zn 4 mg/kg added to basal diet) [g/chick] | Gain:Feed ([1]; Zn 4 mg/kg added to basal diet) [g/kg] | Weight Gain ([1]; Zn 4 mg/kg added to basal diet) [g/chick] | Feed Intake ([1]; Zn 8 mg/kg added to basal diet) [g/chick] | Gain:Feed ([1]; Zn 8 mg/kg added to basal diet) [g/kg] | Weight Gain ([1]; Zn 8 mg/kg added to basal diet) [g/chick] | improvement of overall weight gain compared to the control ([1]; 4 mg Zn per kg feed) | improvement of weight gain per unit of feed compared to the control ([1]; 4 mg Zn per kg feed) | improvement of overall weight gain compared to the control ([1]; 8 mg Zn per kg feed) [%] | improvement of weight gain per unit of feed compared to the control ([1]; 8 mg Zn per kg feed) [%] | minimum solubility of copper [2]
O.O.O.O.O.O.O.O=S(=O)([O-])[O-].[Zn+2] [ZnSO4•7H2O, zinc sulfate heptahydrate, reference compound] | 201.8 | 497 | 100.5 | 233.5 | 514 | 119.8 |  |  |  |  | 
N.N.[Cl][Zn][Cl] [ZDC, zinc diammine chloride] | 189.8 | 523 | 99.3 | 235.3 | 538 | 126.5 | about 37% | about 24% | ~75 | ~28 | 
N.N.[Cl][Cu][Cl] [CDC, copper diammine chloride] |  |  |  |  |  |  |  |  |  |  | about 1,000 mg/L
